Reference: publication PMC7998855 (Toxins, 2021)
Where “and” joins values, the source holds several entries; their conditions need not be identical. Identical values can stand only once.

How the values were obtained:
mucin 5AC [1] = assay: Immunofluorescence staining of mucin 5AC; assay type: cell-based, human; conditions: 24 h, 3 biological replicates; for mucin 5AC fluorescence intensity compared to the solvent control: mean ± SD, SD
[2] = test system: differentiated Caco-2 (C2BBe1) cell monolayer; assay type: cell-based, human; conditions: 24 h incubation with toxin (CER 1-100 ng/mL, DON 0.1-10 µg/mL), then 0.1 mg/mL LY apical in HBSS pH 7.4, 1 h, 37 °C, basolateral fluorescence, 3 biological replicates
[3] = test system: differentiated Caco-2 cells; assay: LC-MS/MS of CER in transwell compartments (uptake); assay type: in vitro ADME, human; conditions: 24 h; for CER concentration in basolateral medium: apical application, mean ± SD, 3 biological replicates, SD
[4] = test system: tight junction protein claudin-4 (CLD-4); assay: Immunofluorescence staining of claudin-4; assay type: cell-based, human; conditions: 24 h, mean ± SD, 3 biological replicates, at least 9 optical fields
[5] = test system: differentiated C2BBe1 cells; assay type: cell-based, human; conditions: for TEER, normalized to solvent control: SD
mucin 5AC [6] = conditions: 2 µM DON, 48 h incubation; cited from earlier work
Description: In addition to the investigation of barrier integrity, interest in the influence of mycotoxins on the intestinal mucus layer recently emerged, whereby data is still scarce. […] In addition to the different incubation times a ...

[7] = test system: differentiated Caco-2 (C2BBe1) cells

cereulide
mucin 5AC fluorescence intensity compared to the solvent control (mucin 5AC [1]; 10 ng/mL CER): 80 ± 14%
mucin 5AC fluorescence intensity compared to the solvent control (mucin 5AC [1]; 100 ng/mL CER): 73 ± 20%
Effect on paracellular passage of Lucifer Yellow [2]: no significant effects
CER concentration in basolateral medium ([3]; 100 ng/mL CER with 10 µg/mL DON, transwell): 0.07 ± 0.05 ng/mL medium
CER concentration in basolateral medium ([3]; 100 ng/mL CER without DON, transwell): 0.04 ± 0.02 ng/mL medium
CER in cell lysates ([3]; 1-100 ng/mL CER with or without DON): detected in the cell lysates of all samples
CER in the apical compartment ([3]; 1-100 ng/mL CER with or without DON, transwell): quantified in all treatment conditions
CLD-4 immunofluorescence intensity in comparison to the solvent control ([4]; 10 ng/mL CER): 173 ± 41%
CLD-4 immunofluorescence intensity in comparison to the solvent control ([4]; 100 ng/mL CER): 138 ± 49%
TEER [5]: no impact
TEER, normalized to solvent control [5]: 193 ± 7% and 163 ± 34%

CC1=C[C@H]2O[C@@H]3[C@H](O)C[C@](C)([C@@]2(CO)[C@H](O)C1=O)[C@]31CO1 [DON, deoxynivalenol]
mucin 5AC fluorescence intensity vs solvent control (mucin 5AC [1]; DON alone (1 and 10 µg/mL)): no significant effect
Effect on paracellular passage of Lucifer Yellow [2]: no significant effects
mucin 5AC in cell lysates of Caco-2 cells (mucin 5AC [6]): upregulation of mucin 5AC
DON concentration in cell lysates [7]: < LOD
Detection of DON in apical medium, basolateral medium and cell lysates [7]: detected in all compartments and incubation conditions, except the cell lysates treated with the lowest toxin concentration
CLD-4 immunofluorescence intensity in comparison to the solvent control ([4]; 10 µg/mL DON): 127 ± 38%
TEER, normalized to solvent control [5]: 116 ± 12% and 116 ± 6%
